Assay results taken from article PMC7606612, “Identification of HMGA2 inhibitors by AlphaScreen-based ultra-high-throughput screening assays” (Scientific Reports, 2020).

Tests used:
[1] = target: T1, HMGA2-DNA interactions (Mus musculus, UniProt P52927); experiment: AlphaScreen primary uHTS assay of His-tagged HMGA2 binding to biotin-labeled DNA oligomer FL814; set-up: species or system mammalian; settings: for inhibition of HMGA2-FL814 interactions / inhibition at 5 µM: LOPAC1280 screen, final concentration of 5 µM; for inhibition of HMGA2-DNA interactions (in words): confirmed hits that do not bind to DNA; for IC50: positive controls, Fig. S1e
T1 construct: made in house
T1 sequence (P52927 2-108 limits assumed): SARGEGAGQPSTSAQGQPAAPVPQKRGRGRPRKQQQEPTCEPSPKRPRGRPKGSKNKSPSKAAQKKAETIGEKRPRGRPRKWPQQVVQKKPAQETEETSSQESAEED
Description: To address these limitations, we established a new assay using AlphaScreen technology. The assay entails binding a biotin-labeled DNA oligomer FL814 and His-tagged HMGA2 to streptavidin-coated donor beads and nickel chelate (Ni-NTA) acceptor beads, respectively (Fig. 1). A series of DNA binding studies were performed to determine the optimal conditions for the AlphaScreen Primary Assay (Fig. S1a–d). […] These two inhibitors are readily available for purchase and served as positive controls for HMGA2-DNA interaction inhibition in the assay.
Using a Labcyte Echo 555 acoustic dispenser 5 nL of DMSO were added to columns 1–4 and 45–48 of a white 1536 well plate, while 5 nL of 2 mM compounds in DMSO were added to columns 5–44. Using a Beckman BioRAPTR FRD bulk reagent dispenser 1 µL of assay buffer (30 mM Citrate, 300 mM NaCl, and 0.005% Tween 20) was added to columns 1 and 2. Next 1 µL of assay buffer containing 125 nM HMGA2 was added to columns 3–48 with a Beckman BioRAPTR FRD bulk reagent dispenser. Finally, 1 µL of assay buffer containing 25 nM FL814 was added to every well of the plate using a Beckman BioRAPTR FRD bulk reagent dispenser. The plate was then centrifuged at 200 × g for 1 min. After 30 min at room temperature, 2 µL of bead buffer (10 mM HEPES, 300 mM NaCl and 0.005% Tween 20) containing 20 µg/mL anti-6xHIS acceptor beads and 20 µg/mL streptavidin donor beads were dispensed into every well using a Beckman BioRAPTR FRD bulk reagent dispenser. The plates were then centrifuged at 200 × g for 1 min. After 1 h at room temperature the plates were read on a Perkin Elmer Envision multimode plate reader in AlphaScreen mode.

[2] = target: “AT-hook” peptide 3 (ATHP3) (Homo sapiens, UniProt P52926); experiment: Isothermal titration calorimetry (ITC), titration into ATHP3; format: binding; settings: for ATHP3 Ka (M^−1) / ATHP3 Binding site: first line; for ATHP3 Binding site: number of sites
Description: (§1) ITC experiments were conducted using a VP-ITC titration calorimeter (MicroCal, Inc., Northampton, MA) interfaced to a PC. Origin 7.0, supplied by the manufacturer was used for data acquisition. […] The heat liberated or absorbed is observed as a peak corresponding to the power required keeping the sample and reference cells at identical temperatures. The peak produced during the injection is converted to heat output by integration and corrected for cell volume and sample concentration. […] The net enthalpy for the titration reaction was determined by subtraction of the component heats of dilution.

[3] = target: T2, HMGA2 (Mus musculus, UniProt P52927); experiment: Isothermal titration calorimetry (ITC), titration into HMGA2; format: binding, mammalian; settings: for HMGA2 Binding site: number of sites
T2 construct: made in house
T2 sequence (P52927 2-108 limits assumed): T1 sequence (P52927 2-108 limits assumed)
Description: as §1

[4] = target: T1, HMGA2-DNA interactions; experiment: Protein-DNA interaction ELISA (PDI-ELISA) assay; format: binding, mammalian; settings: for IC50: inhibition of HMGA2-DNA interactions, PDI-ELISA
Description: The PDI-ELSA assays were described previously[33] and used to determine the inhibition IC50 against HMGA2-DNA interactions. The apparent inhibitory IC50 values were obtained using the following equation: y=min+(max-min/1+10^((x-logIC50)×Hillslope) , where x, y, max, and min represent the inhibitor’s concentration, the inhibition level, the maximum inhibition value, and the minimum inhibition value, respectively.

[5] = target: T1, HMGA2-DNA interactions; experiment: LANCE TR-FRET secondary assay of HMGA2 binding to FL814; set-up: species or system mammalian; concentration or dose not given beside the values; settings: cherry picked primary hits
Description: In this study, we also developed a LANCE time-resolved fluorescence energy transfer (TR-FRET) assay as a secondary assay for our screening. The His-tagged HMGA2 and biotinylated oligomer FL814 were linked to Europium-labeled anti-6 × His antibody and APC-labeled streptavidin, respectively. A series of DNA binding studies were performed to determine the optimal conditions for the secondary Assay (Fig. S2). After these experiments, 12.5 nM of FL814 and 62.5 nM of HMGA2 were chosen for the assay, which is the same for the primary assay. The assay tolerated up to 0.25% DMSO without any significant change in signal (Fig. S2c). For a counterscreen assay to exclude those compounds that nonspecifically bind to the protein surface, an AlphaScreen assay of H4 peptide binding to bromodomain-containing protein 4 (BRD4) was adopted (Fig. S2e). Since we are looking for compounds with anti-metastasis or anti-obesity activities, compounds with high levels of cytotoxicity are undesirable. […] Furthermore, potential DNA-binding compounds, i.e., DNA intercalators, minor groove binders, and DNA alkylating agents, can be identified by analyzing their chemical structures and will be excluded as well.
Using a Labcyte Echo 555 acoustic dispenser 5 nL of DMSO were added to columns 1–4 and 45–48 of a white 1536 well plate, while 5 nL of 2 mM compounds in DMSO were added to columns 5–44. Using a Beckman BioRAPTR FRD bulk reagent dispenser 1 µL of assay buffer (10 mM Tris, 300 mM NaCl and 0.005% Tween 20) was added to columns 1 and 2. Next, 1 µL of assay buffer containing 125 nM HMGA2 was added to columns 3–48 with a Beckman BioRAPTR FRD bulk reagent dispenser. Finally, 1 µL of assay buffer containing 25 nM FL814 was added to every well of the plate using a Beckman BioRAPTR FRD bulk reagent dispenser. The plate was then centrifuged at 200 × g for 1 min. After 30 min at room temperature 1 µL of assay buffer containing 250 nM LANCE Ultra ULight-anti-6xHIS and 1 µL of assay buffer containing 12 nM LANCE Eu-W1024 Streptavidin was dispensed into every well using a Beckman BioRAPTR FRD bulk reagent dispenser. The plates were then centrifuged at 200 × g for 1 min. After 1 h at room temperature the plates were read on a Perkin Elmer Envision multimode plate reader in TR-FRET mode (excitation @340 nm, first emission at @665 nm, second emission at 615 nm).

[6] = system: mouse pre-adipocyte 3T3-L1 cells; set-up: method as in PMID 25653160; settings: cited from earlier work

NC(Cc1cc(O)c(O)cc1O)C(=O)O (racemic) [6-hydroxy-DL-DOPA]
inhibition of HMGA2-FL814 interactions [1]: ≥ 50%

O=C1c2ccccc2C(=O)c2c(NCCc3ccc(O)cc3)ccc(NCCc3ccc(O)cc3)c21 [JFD00244]
inhibition of HMGA2-FL814 interactions [1]: ≥ 50%

O=C(Nc1cccc(C(=O)Nc2ccc(S(=O)(=O)O)c3cc(S(=O)(=O)O)cc(S(=O)(=O)O)c23)c1)Nc1cccc(C(=O)Nc2ccc(S(=O)(=O)O)c3cc(S(=O)(=O)O)cc(S(=O)(=O)O)c23)c1 [NF023]
ATHP3 Ka (M^−1) [2]: 9.75 ± 3.47 × 10^6 M^−1 | ATHP3 Binding site [2]: 1 | HMGA2 Ka (M^−1) ([3]; first type of binding sites): 2.47 ± 4.53 × 10^6 M^−1 | HMGA2 Binding site ([3]; first type): 1.74 | IC50 [4]: 10.6 ± 0.46 µM

O=C(Nc1cc(C(=O)Nc2ccc(S(=O)(=O)O)cc2)cc(C(=O)Nc2ccc(S(=O)(=O)O)cc2)c1)Nc1cc(C(=O)Nc2ccc(S(=O)(=O)O)cc2)cc(C(=O)Nc2ccc(S(=O)(=O)O)cc2)c1 [NF110]
ATHP3 Ka (M^−1) [2]: 2.17 ± 0.17 × 10^7 M^−1 | ATHP3 Binding site [2]: 1.01 | HMGA2 Ka (M^−1) ([3]; first type of binding sites): 2.04 ± 0.48 × 10^8 M^−1 | HMGA2 Binding site ([3]; first type): 2.06 | HMGA2 Binding site ([3]; second type): 1.77 | HMGA2 Ka (M^−1) ([3]; second type of binding sites): 7.16 ± 0.67 × 10^5 M^−1 | IC50 [4]: 0.87 ± 0.039 µM

O=C(Nc1cc(C(=O)Nc2ccc(S(=O)(=O)O)cc2S(=O)(=O)O)cc(C(=O)Nc2ccc(S(=O)(=O)O)cc2S(=O)(=O)O)c1)Nc1cc(C(=O)Nc2ccc(S(=O)(=O)O)cc2S(=O)(=O)O)cc(C(=O)Nc2ccc(S(=O)(=O)O)cc2S(=O)(=O)O)c1 [NF449]
ATHP3 Ka (M^−1) [2]: 1.10 ± 7.35 × 10^11 M^−1 | ATHP3 Binding site [2]: 0.86 | HMGA2 Ka (M^−1) ([3]; first type of binding sites): 5.53 ± 6.14 × 10^7 M^−1 | HMGA2 Binding site ([3]; first type): 0.89 | HMGA2 Binding site ([3]; second type): 1.63 | HMGA2 Ka (M^−1) ([3]; second type of binding sites): 8.17 ± 1.33 × 10^5 M^−1 | IC50 [4]: 0.43 ± 0.18 µM

Nc1ccc(-c2nc3ccc(-c4nc5ccc(N)cc5[nH]4)cc3[nH]2)cc1 [Ro 90-7501]
inhibition of HMGA2-FL814 interactions [1]: ≥ 50% | inhibition of HMGA2-DNA interactions (in words) [1]: strongly inhibit HMGA2-DNA interactions | inhibition of HMGA2-DNA interactions [5]: ≥ 50%

COc1cccc2c1C(=O)c1c(O)c3c(c(O)c1C2=O)C[C@@](O)(C(C)=O)C[C@@H]3O[C@H]1C[C@H](NCc2ccc(CN[C@H]3C[C@H](O[C@H]4C[C@](O)(C(C)=O)Cc5c(O)c6c(c(O)c54)C(=O)c4c(OC)cccc4C6=O)O[C@@H](C)[C@H]3O)cc2)[C@H](O)[C@H](C)O1 [WP631]
IC50 [1]: 0.048 µM

O=C(O)C1=CC(=C(c2ccc(O)c(C(=O)O)c2)c2ccc(O)c(C(=O)O)c2)C=CC1=O [aurintricarboxylic acid]
inhibition at 5 µM [1]: ≥ 50% | inhibition of HMGA2-DNA interactions (in words) [1]: strongly inhibit HMGA2-DNA interactions | inhibition of HMGA2-DNA interactions [5]: ≥ 50%

N.N.O=C([O-])C1(C(=O)[O-])CCC1.[Pt+2] [carboplatin]
inhibition of HMGA2-FL814 interactions [1]: ≥ 50% | inhibition of HMGA2-DNA interactions [5]: ≥ 50%

N.N.[Cl][Pt][Cl] [cisplatin]
inhibition of HMGA2-FL814 interactions [1]: ≥ 50% | inhibition of HMGA2-DNA interactions [5]: ≥ 50%

CN(N=O)c1ccc(O)c(O)c1 [methyl-3,4-dephostatin]
inhibition of HMGA2-FL814 interactions [1]: ≥ 50%

O=C1c2c(O)ccc(O)c2C(=O)c2c(NCCNCCO)ccc(NCCNCCO)c21 [mitoxantrone]
inhibition at 5 µM [1]: ≥ 50% | inhibition of HMGA2-DNA interactions [5]: ≥ 50%

Cn1cc(NC(=O)c2cc(NC(=O)CN=C(N)N)cn2C)cc1C(=O)NCCC(=N)N [netropsin]
IC50 [1]: 0.022 µM | differentiation of 3T3-L1 cells into adipocytes [6]: strongly inhibited

Nc1c(S(=O)(=O)O)cc(Nc2ccc(Nc3nc(Cl)nc(Nc4cccc(S(=O)(=O)O)c4)n3)c(S(=O)(=O)O)c2)c2c1C(=O)c1ccccc1C2=O [reactive blue-2]
inhibition of HMGA2-FL814 interactions [1]: ≥ 50%

O=S(=O)([O-])c1cccc2ccccc12.[Na+] [sodium 1-naphthalenesulfonate]
binding to ATHP3 (in words) [2]: all these chemical compounds except sodium 1-naphthalenesulfonate strongly bind to both HMGA2 and ATHP3 | binding to HMGA2 (in words) [3]: all these chemical compounds except sodium 1-naphthalenesulfonate strongly bind to both HMGA2 and ATHP3 | inhibition of HMGA2-DNA interactions (in words) ([4]; SAR of suramin analogues): all of these analogues except sodium 1-naphthalenesulfonate potently inhibit HMGA2-DNA interactions

C=C1C[C@@]23CC[C@H]4[C@@](C)(CCC[C@@]4(C)C(=O)O)[C@@H]2CC[C@]1(O)C3 [steviol]
inhibition at 5 µM [1]: ≥ 50%

N#CC(C#N)=C(N)/C(C#N)=C/c1cc(O)c(O)c(O)c1 [tyrphostin 51]
inhibition at 5 µM [1]: ≥ 50%

NF546
ATHP3 Ka (M^−1) [2]: 4.28 ± 0.47 × 10^6 M^−1 | ATHP3 Binding site [2]: 0.81 | HMGA2 Ka (M^−1) ([3]; first type of binding sites): 1.48 ± 0.47 × 10^7 M^−1 | HMGA2 Binding site ([3]; first type): 1.83 | HMGA2 Binding site ([3]; second type): 1.98 | HMGA2 Ka (M^−1) ([3]; second type of binding sites): 3.37 ± 8.81 × 10^5 M^−1 | IC50 [4]: 5.49 ± 2.81 µM

indirubin-3′-monoxime
inhibition of HMGA2-FL814 interactions [1]: ≥ 50%
